The values below come from patent US10561624B2, “Methods and materials for the treatment of testosterone deficiency in men” (REPROS THERAPEUTICS INC., priority 2001, dated 2020).

Values joined by “and” are separate entries in the source; they are usually repeats but may differ in a detail not shown here. Identical values can stand only once. “Also recorded” adds a separate entry of the source. Counter-ions that a name gives are not always drawn.

Series [1] has as its system Adult, male, Baboons. In words: Effects on clinical chemistry parameters in male baboons. In kind it is in vivo. The conditions noted are these: for serum glucose: changes within the normal range; for anionic gap: day 12 of treatment and 7 days after treatment (washout); for Alkaline phosphatase (ALP): following treatment; for serum cholesterol: not statistically significant, within the normal range.
From the text: (§1) The samples analyzed were sera taken on the day of first treatment before being given test article (day 0), after 12 days of treatment (day 12) and 7 days after the last treatment (end or wash-out).

For series [2], the system named is men. The settings on record: cited from earlier work.
In series [3] the test system is Adult, male, Baboons. In words: Effects of Clomids on serum testosterone in male baboons. The conditions noted are these: for Serum Testosterone Levels, 6 days, mean / Serum Testosterone Levels, 12 days, mean / Serum Testosterone Levels, wash-out, mean / Serum Testosterone Levels, baseline, mean / Serum Testosterone Levels, 0 day, mean: group mean of 3 baboons; for Serum Testosterone Levels, 6 days, mean / Serum Testosterone Levels, 6 days: 1.5 mg/kg daily, day 6; for Serum Testosterone Levels, 12 days, mean: 1.5 mg/kg for 12 days; for Serum Testosterone Levels, 12 days, mean / Serum Testosterone Levels, 12 days: day 12; for Serum Testosterone Levels, wash-out, mean / Serum Testosterone Levels, wash-out: 7 days after the last treatment; for Serum Testosterone Levels, baseline, mean: before treatment; for Serum Testosterone Levels, 0 day, mean / Serum Testosterone Levels, 0 day: day 0, before first dose; for Serum Testosterone Levels, 6 days / Serum Testosterone Levels, 12 days / Serum Testosterone Levels, wash-out / Serum Testosterone Levels, baseline / Serum Testosterone Levels, 0 day: individual baboon; for Serum Testosterone Levels, 6 days / Serum Testosterone Levels, 12 days: 1.5 mg/kg; for Serum Testosterone Levels, 12 days / effect on total serum testosterone: 1.5 mg/kg for 12 consecutive days; for Serum Testosterone Levels, baseline: baseline Dec. 3, 2001, before treatment; for effect on total serum testosterone: male baboons.
From the text: as §1

Series [4] relates to Adult, male, Baboons. In words: Effects on body weight and serum LH, FSH, PRL in male baboons. Format: in vivo. The conditions noted are these: during the study.
From the text: as §1
The conditions of series [5]: Ernst et al.; cited from earlier work.
For series [6] the following is noted: cited from earlier work.

Consider `CCN(CC)CCOc1ccc(C(=C(Cl)c2ccccc2)c2ccccc2)cc1` [Clomid, clomiphene citrate], for which, in series [1], the serum glucose entry is listed as “increase” and the anionic gap result is “lower values than the Enclomid group”. In series [2] (Guay et al. 1995, 2 months), the “LH, FSH, and testosterone after 2 months” value is “increase in LH, FSH, and testosterone”; the erectile dysfunction result is given as “no effects on erectile dysfunction”. For the same molecule, in series [2] (Tenover et al. 1987), the “FSH, LH in young and old men” value is given as “increased in FSH, LH”; the “free and total testosterone in men” value was “increases in free and total testosterone”. The “semen quality or fertility” value in series [2] (WHO study, 6 months of treatment) is recorded as “no changes in semen quality or fertility”. Also, in series [2] (approved cis/trans mixture), the side effects result is “blurred vision, abdominal discomfort, gynecomastia, testicular tumors, vasomotor flushes, nausea, and headaches”. Besides, the “genotoxicity and tumor enhancement” value in series [2] (other studies) was “genotoxic and tumor enhancement effects”. In addition, the “variability of total testosterone levels (coefficients of variations)” value in series [3] (day 6 and later, compared to animals receiving Enclomid) is given as “more variable total testosterone levels”. In addition, in series [3], the “Serum Testosterone Levels, 6 days, mean” value was 559.3 ng/dL; the “Serum Testosterone Levels, 12 days, mean” value worked out at 588.7 ng/dL; the “Serum Testosterone Levels, wash-out, mean” value turned out to be 203.6 ng/dL; the “Serum Testosterone Levels, baseline, mean” value worked out at 111.5 ng/dL. In addition, the “Serum Testosterone Levels, 0 day, mean” value in series [3] was found to be 161.4 ng/dL. Also, in series [3] (listed as CLO), the “Serum Testosterone Levels, 6 days” value was 940.97 ng/dL and 585.92 ng/dL and 151.12 ng/dL; the “Serum Testosterone Levels, 12 days” value was 891.5 ng/dL and 555.6 ng/dL and 318.9 ng/dL; the “Serum Testosterone Levels, wash-out” value is 150.9 ng/dL and 316.3 ng/dL and 143.6 ng/dL; the “Serum Testosterone Levels, baseline” value was 79.01 ng/dL and 97.55 ng/dL and 158.06 ng/dL. For the same molecule, in series [3] (listed as CLO), the “Serum Testosterone Levels, 0 day” value is 76.15 ng/dL and 305.24 ng/dL and 102.94 ng/dL.

In the case of `CCN(CC)CCOc1ccc(/C(=C(\Cl)c2ccccc2)c2ccccc2)cc1` [Enclomid, trans-clomiphene], the “serum prolactin (PRL)” value in series [4] was “decrease”. Further, in series [1] (12-day treatment, values stayed within the normal range), the platelets entry was “clear effect”. Moreover, the serum creatinine entry in series [1] (between day 0 and Day 12) is listed as “no differences”. In series [1], the serum glucose entry is recorded as “no increases with treatment”, the anionic gap result is recorded as “raised this parameter towards normal values”, the “Alkaline phosphatase (ALP)” value is given as “decreased in value” and the serum cholesterol result is listed as “tended to decrease”. Moreover, in series [1] (in vivo), the “counts of lymphocytes and eosinophiles” value was “raising the counts”; the “red blood cell population” value was “substantive effects”. Also, the “count and percent lymphocytes” value in series [1] (mean percent remains in the normal range) is listed as “increase”. Moreover, in series [1] (very strong after the 7-day washout, below the normal range), the “percent of granulocytes in the blood” value is “strong effect”. Moreover, the “estrogenic / antiestrogenic activity” value in series [5] is reported as “antiestrogenic”. In series [3], the “effect on total serum testosterone” value is given as “significant increases in total serum testosterone; also recorded: more effective than Clomid or Zuclomid”; the “Serum Testosterone Levels, 6 days, mean” value turned out to be 1144.4 ng/dL; the “Serum Testosterone Levels, 12 days, mean” value was 1088.5 ng/dL; the “Serum Testosterone Levels, wash-out, mean” value was found to be 325.8 ng/dL. For the same molecule, in series [3], the “Serum Testosterone Levels, baseline, mean” value stood at 134.0 ng/dL; the “Serum Testosterone Levels, 0 day, mean” value stood at 105.0 ng/dL; the “Serum Testosterone Levels, 6 days” value is 1223.8 ng/dL and 1128.2 ng/dL and 1081.1 ng/dL; the “Serum Testosterone Levels, 12 days” value is 633.6 ng/dL and 1466 ng/dL and 1166 ng/dL. For the same molecule, in series [3], the “Serum Testosterone Levels, wash-out” value is 307.2 ng/dL and 399.2 ng/dL and 271 ng/dL; the “Serum Testosterone Levels, baseline” value is 64.57 ng/dL and 166.86 ng/dL and 170.45 ng/dL; the “Serum Testosterone Levels, 0 day” value is 74.96 ng/dL and 133.59 ng/dL and 106.47 ng/dL. In addition, the “change of total serum testosterone after cessation of treatment” value in series [3] (between day 12 and day 18 (washout)) was “significant drop”. In addition, in series [3] (days 6 and 12 vs baseline or day 0), the “total serum testosterone on days 6 and 12 compared with baseline or day 0 (FIG. 3 time course)” value was “significantly and statistically raised total serum testosterone”. Also, in series [3] (inferred from testosterone drop after cessation), the “clearance from the circulation” value was “readily cleared from the circulation”.

On to `CCN(CC)CCOc1ccc(/C(=C(/Cl)c2ccccc2)c2ccccc2)cc1` [Zuclomid, cis-clomiphene], for which, in series [1], the serum glucose entry is “increase”, the anionic gap entry is “lower values than the Enclomid group”, the “Alkaline phosphatase (ALP)” value is given as “not elevated” and the serum cholesterol entry is “tended to increase”. Also, in series [1] (in vivo), the AST result is listed as “lowering”, the hematocrit result was “substantive effects” and the “red blood cell population” value was “substantive effects”. For the same molecule, the “estrogenic / antiestrogenic activity” value in series [5] was “more potent and more estrogenic”. In addition, the half-life result in series [6] (relative to the other isomer in Clomid) is on record as “longer half-life”. Moreover, the “residual blood levels following a single dose” value in series [6] (reported in literature) is reported as “in excess of one month”. In series [3], the “effect on total serum testosterone” value is given as “did not raise total serum testosterone to any extent; also recorded: not effective”; the “Serum Testosterone Levels, 6 days, mean” value worked out at 178.5 ng/dL; the “Serum Testosterone Levels, 12 days, mean” value was determined as 357.9 ng/dL; the “Serum Testosterone Levels, wash-out, mean” value worked out at 498.1 ng/dL. In addition, in series [3], the “Serum Testosterone Levels, baseline, mean” value stood at 170.6 ng/dL; the “Serum Testosterone Levels, 0 day, mean” value was determined as 394.2 ng/dL; the “Serum Testosterone Levels, 6 days” value is 137.51 ng/dL and 169.98 ng/dL and 227.95 ng/dL; the “Serum Testosterone Levels, 12 days” value was 314.5 ng/dL and 406.1 ng/dL and 353.0 ng/dL. In series [3], the “Serum Testosterone Levels, wash-out” value was 359.7 ng/dL and 860.5 ng/dL and 274.1 ng/dL; the “Serum Testosterone Levels, baseline” value is 124.84 ng/dL and 104.66 ng/dL and 282.29 ng/dL; the “Serum Testosterone Levels, 0 day” value is 210.4 ng/dL and 67.37 ng/dL and 904.82 ng/dL.
